Tests used:
[1] = system: endolysosomal flux in SNCA triplication fibroblasts; assay: Endolysosomal flux assay, confocal microscopy, SNCA triplication fibroblasts; format: cell-based, human
Method: (§1) Flux via the endolysosomal pathway was measured with the Lysosome Intracellular Activity Assay Kit which was purchased from Abcam (ab234622) and used according to the manufacturer’s instructions. The kit provides a proprietary lysosome-specific self-quenched substrate which has low background fluorescence, high signal-to-background ratio, and is pH insensitive. In the assay, the substrate is taken up by cells and acts as endocytic cargo which is degraded within an endolysosomal vesicle. Following degradation, the fluorescence signal recovered from the substrate is proportional to the intracellular lysosomal activity. The activity can be measured by fluorescence microscopy or FACS. The assay was performed with HEK293T cells or SNCA triplication fibroblasts (obtained from NINDS Human Genetics Resource Center DNA and Cell Line Repository; NINDS Repository sample number ND27760). Cells were maintained in DMEM supplemented with 10% FBS and 1% pen/strep/glutamine. Cell medium was replaced with fresh medium containing DMSO, Leupeptin, or Bafilomycin A1 and incubated for 1 h at 37 °C with 5% CO2. Self-quenched substrate was added into each condition and incubated for 1 h (HEK293T cells) or overnight (SNCA triplication fibroblasts) at 37 °C with 5% CO2. […] For HEK293T cells, cells were resuspended in PBS containing DMSO or Leupeptin and analyzed by FACS. […]

[2] = system: LC3-HiBiT reporter in HEK293 cells; assay: Autophagy flux assay (LC3-HiBiT reporter), HEK293 cells; format: cell-based, human
From the text: Autophagic flux was quantitatively measured with the Autophagy LC3-HiBiT Reporter Assay System which was purchased from Promega (GA1040) and used according to the manufacturer’s instructions. When autophagy is induced, the cytosolic LC3-I fusion protein is recruited to phagophores where it becomes conjugated to phosphatidylethanolamine to form LC3-II. Upon phagophore membrane elongation and closure to form the mature autophagosome, a significant fraction of tethered LC3 protein becomes captured within the lumen together with various cargo. Subsequently, autophagosomes fuse with lysosomes to form autolysosomes, leading to the ultimate degradation of both cargo and the captured LC3 reporter protein. Thus, changes in the total level of the LC3 reporter protein can be used to monitor changes in autophagic flux. HEK293 cells (ATCC, CRL-1573) stably expressing the LC3-HiBiT reporter were trypsinized from subconfluent culture and seeded in a 10 cm plate at a density of 3.0 × 10^6 per plate. Cells were incubated overnight at 37 °C in 5% CO2. Cells were transfected with FLAG-peptide plasmids in combination with pcDNA or A53T a-syn plasmids. After 24 h, cells were trypsinized and seeded in triplicate in a white flat-bottomed 96-well plate at a density of 20,000 cells per well. Cell medium was replaced the next day with fresh medium containing DMSO, Rapamycin, or Bafilomycin A1 and incubated for 24 h at 37 °C with 5% CO2. 80 µL of Working prewarmed Nano-Glo® HiBiT lytic buffer containing HiBiT substrate and LgBit protein (N3030) were added to each well containing 20 µL of cell medium and left to incubate on a rocker for 10 min. Samples were read using a luminometer with a 480 nm filter with measured RLU being directly proportional to HiBiT-conjugated LC3.

[3] = system: endolysosomal flux in HEK293 cells; assay: Endolysosomal flux assay, flow cytometry, HEK293 cells; format: cell-based, human; conditions: A53T a-syn
Method: as §1

LAMP1 = LAMP1 fluorescence in rat cortical neurons; format: cell-based; conditions: A53T a-syn
From the text: (§2) Pregnant rats (E17) of the Sprague-Dawley strain were purchased from Envigo. Embryos were surgically removed from the mothers and cortices dissected in Hanks Balanced salt solution (Gibco). The meninges were removed, and cells were dissociated using a papain dissociation system (Worthington) before being resuspended in Neurobasal medium A supplemented with antibiotic-antimycotic solution (Gibco), L-glutamine substitute (GlutaMAX™; Gibco) and factor B27 (Gibco). […]
(§3) After fixation, cells were permeabilized with 0.2% Triton-X-100 for 15 min, washed three times with PBS and then incubated with blocking solution (1% BSA, 22.52 mg/mL glycine, 0.1% Tween-20 in PBS or 0.4% saponin, 1% BSA, and 5% goat or donkey serum in PBS) for 1 h. […] Following another three washes with PBS, nuclei were counterstained with DAPI (ThermoFisher) and then coverslips were mounted on slides using Dako fluorescence mounting medium (Agilent) and sealed using clear nail varnish.
(§4) Confocal images of primary cortical neurons, iPSC-derived dopaminergic neurons, and LAMP1 staining within the SN were processed using Imaris software (Oxford instruments). […] Mean pixel intensity per GFP^+ cell (for experiments using GFP-tagged peptides) or RFP^+ cell (for experiments using RFP-tagged peptides) was calculated for a-syn or LAMP1 signal using the software’s surfaces module. […]

cathepsin B = assay: Cathepsin B fluorescence in rat cortical neurons; format: cell-based; conditions: A53T a-syn
From the text: as §2, §3, §4

DEEIERQLKALG [PDpep1.3]
Effect on endolysosomal flux in fibroblasts [1]: increased endolysosomal flux
Effect on autophagic flux [2]: neither A53T a-syn nor PDpep1.3 altered autophagic flux
Effect on endolysosomal flux [3]: returned the fluorescent signal to baseline
Effect on LAMP1, neurons (LAMP1): restored LAMP1 levels
Effect on cathepsin B (cathepsin B): reduced to control levels

Reference: article PMC10115881, “Disrupting the α-synuclein-ESCRT interaction with a peptide inhibitor mitigates neurodegeneration in preclinical models of Parkinson’s disease” (Nature Communications, 2023)
